Tests used:
Experiment in all cases: Herbicidal activity, pot culture method (primary and secondary screening test)
Format in all cases: in vivo
Conditions in all cases: primary screening, pot culture, 150 g/ha, sprayed at 3-leaf stage, result 15 days later
digitaria sanguinalis = system: digitaria sanguinalis
In short: (§1)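 Weeds were sown in 1:2 garden soil:seedling matrix and sprayed at the 3-leaf stage by automatic spray tower. Compounds were dissolved in DMF and diluted in water to 0.2 g/L, dosed at 150 g/ha; the secondary screen used a reduced dose. Inhibition ratio (%) was assessed after 15 days in the greenhouse.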

amaranthus retroflexus = system: amaranthus retroflexus
In short: as §1

eclipta prostrata = system: eclipta prostrata
In short: as §1

abutilon theophrasti = system: abutilon theophrasti
In short: as §1

echinochloa crusgalli = system: echinochloa crusgalli
In short: as §1

setaria viridis = system: setaria viridis
In short: as §1

COc1ccccc1-n1c(=O)c2cc(C(=O)C3=C(O)CCCC3=O)ccc2n(C)c1=O [Compound 29]
herbicidal activity inhibition ratio (%), Digitaria sanguinalis (digitaria sanguinalis): 88% | herbicidal activity inhibition ratio (%), Amaranthus retroflexus (amaranthus retroflexus): 100% | herbicidal activity inhibition ratio (%), Eclipta prostrata (eclipta prostrata): 65% | herbicidal activity inhibition ratio (%), Abutilon theophrasti (abutilon theophrasti): 90% | herbicidal activity inhibition ratio (%), Echinochloa crusgalli (echinochloa crusgalli): 90% | herbicidal activity inhibition ratio (%), Setaria viridis (setaria viridis): 60%

Cn1c(=O)n(-c2ccccc2OC(F)(F)F)c(=O)c2cc(C(=O)C3=C(O)CCCC3=O)ccc21 [Compound 39]
herbicidal activity inhibition ratio (%), Digitaria sanguinalis (digitaria sanguinalis): 85% | herbicidal activity inhibition ratio (%), Amaranthus retroflexus (amaranthus retroflexus): 98% | herbicidal activity inhibition ratio (%), Eclipta prostrata (eclipta prostrata): 85% | herbicidal activity inhibition ratio (%), Abutilon theophrasti (abutilon theophrasti): 95% | herbicidal activity inhibition ratio (%), Echinochloa crusgalli (echinochloa crusgalli): 70% | herbicidal activity inhibition ratio (%), Setaria viridis (setaria viridis): 80%

Cc1cccc(C)c1-n1c(=O)c2cc(C(=O)C3=C(O)C(C)(C)CCC3=O)ccc2n(C)c1=O [Compound 54]
herbicidal activity inhibition ratio (%), Digitaria sanguinalis (digitaria sanguinalis): 60% | herbicidal activity inhibition ratio (%), Amaranthus retroflexus (amaranthus retroflexus): 98% | herbicidal activity inhibition ratio (%), Eclipta prostrata (eclipta prostrata): 80% | herbicidal activity inhibition ratio (%), Abutilon theophrasti (abutilon theophrasti): 100% | herbicidal activity inhibition ratio (%), Echinochloa crusgalli (echinochloa crusgalli): 95% | herbicidal activity inhibition ratio (%), Setaria viridis (setaria viridis): 45%

Cc1ccccc1-n1c(=O)c2cc(C(=O)C3=C(O)CC(C)(C)CC3=O)ccc2n(CC(C)C)c1=O [Compound 76]
herbicidal activity inhibition ratio (%), Digitaria sanguinalis (digitaria sanguinalis): 0% | herbicidal activity inhibition ratio (%), Amaranthus retroflexus (amaranthus retroflexus): 0% | herbicidal activity inhibition ratio (%), Eclipta prostrata (eclipta prostrata): 0% | herbicidal activity inhibition ratio (%), Abutilon theophrasti (abutilon theophrasti): 20% | herbicidal activity inhibition ratio (%), Echinochloa crusgalli (echinochloa crusgalli): 0% | herbicidal activity inhibition ratio (%), Setaria viridis (setaria viridis): 10%

Cc1ccccc1-n1c(=O)c2cc(C(=O)C3=C(O)CCCC3=O)ccc2n(Cc2ccccc2)c1=O [Compound 79]
herbicidal activity inhibition ratio (%), Digitaria sanguinalis (digitaria sanguinalis): 0% | herbicidal activity inhibition ratio (%), Amaranthus retroflexus (amaranthus retroflexus): 0% | herbicidal activity inhibition ratio (%), Eclipta prostrata (eclipta prostrata): 0% | herbicidal activity inhibition ratio (%), Abutilon theophrasti (abutilon theophrasti): 0% | herbicidal activity inhibition ratio (%), Echinochloa crusgalli (echinochloa crusgalli): 0% | herbicidal activity inhibition ratio (%), Setaria viridis (setaria viridis): 10%

Cn1c(=O)n(-c2ccc(Br)cc2)c(=O)c2cc(C(=O)C3=C(O)CC(C)(C)CC3=O)ccc21 [Compound 26]
herbicidal activity inhibition ratio (%), Digitaria sanguinalis (digitaria sanguinalis): 93% | herbicidal activity inhibition ratio (%), Amaranthus retroflexus (amaranthus retroflexus): 100% | herbicidal activity inhibition ratio (%), Eclipta prostrata (eclipta prostrata): 88% | herbicidal activity inhibition ratio (%), Abutilon theophrasti (abutilon theophrasti): 100% | herbicidal activity inhibition ratio (%), Echinochloa crusgalli (echinochloa crusgalli): 85% | herbicidal activity inhibition ratio (%), Setaria viridis (setaria viridis): 30%

Cn1c(=O)n(-c2c(Cl)cccc2Cl)c(=O)c2cc(C(=O)C3=C(O)CCCC3=O)ccc21 [Compound 32]
herbicidal activity inhibition ratio (%), Digitaria sanguinalis (digitaria sanguinalis): 80% | herbicidal activity inhibition ratio (%), Amaranthus retroflexus (amaranthus retroflexus): 85% | herbicidal activity inhibition ratio (%), Eclipta prostrata (eclipta prostrata): 50% | herbicidal activity inhibition ratio (%), Abutilon theophrasti (abutilon theophrasti): 80% | herbicidal activity inhibition ratio (%), Echinochloa crusgalli (echinochloa crusgalli): 80% | herbicidal activity inhibition ratio (%), Setaria viridis (setaria viridis): 40%

Cn1c(=O)n(-c2ccc(Cl)cc2Cl)c(=O)c2cc(C(=O)C3=C(O)CCCC3=O)ccc21 [Compound 62]
herbicidal activity inhibition ratio (%), Digitaria sanguinalis (digitaria sanguinalis): 65% | herbicidal activity inhibition ratio (%), Amaranthus retroflexus (amaranthus retroflexus): 88% | herbicidal activity inhibition ratio (%), Eclipta prostrata (eclipta prostrata): 20% | herbicidal activity inhibition ratio (%), Abutilon theophrasti (abutilon theophrasti): 100% | herbicidal activity inhibition ratio (%), Echinochloa crusgalli (echinochloa crusgalli): 83% | herbicidal activity inhibition ratio (%), Setaria viridis (setaria viridis): 93%

Cn1c(=O)n(-c2ccc(OC(F)(F)F)cc2)c(=O)c2cc(C(=O)C3=C(O)CCCC3=O)ccc21 [Compound 50]
herbicidal activity inhibition ratio (%), Digitaria sanguinalis (digitaria sanguinalis): 60% | herbicidal activity inhibition ratio (%), Amaranthus retroflexus (amaranthus retroflexus): 95% | herbicidal activity inhibition ratio (%), Eclipta prostrata (eclipta prostrata): 80% | herbicidal activity inhibition ratio (%), Abutilon theophrasti (abutilon theophrasti): 50% | herbicidal activity inhibition ratio (%), Echinochloa crusgalli (echinochloa crusgalli): 78% | herbicidal activity inhibition ratio (%), Setaria viridis (setaria viridis): 50%

Cc1ccccc1-n1c(=O)c2cc(C(=O)C3=C(O)CCCC3=O)ccc2n(CC(C)C)c1=O [Compound 75]
herbicidal activity inhibition ratio (%), Digitaria sanguinalis (digitaria sanguinalis): 0% | herbicidal activity inhibition ratio (%), Amaranthus retroflexus (amaranthus retroflexus): 20% | herbicidal activity inhibition ratio (%), Eclipta prostrata (eclipta prostrata): 20% | herbicidal activity inhibition ratio (%), Abutilon theophrasti (abutilon theophrasti): 90% | herbicidal activity inhibition ratio (%), Echinochloa crusgalli (echinochloa crusgalli): 0% | herbicidal activity inhibition ratio (%), Setaria viridis (setaria viridis): 10%

Cn1c(=O)n(-c2cccc(C(F)(F)F)c2)c(=O)c2cc(C(=O)C3=C(O)CC(C)(C)CC3=O)ccc21 [Compound 51]
herbicidal activity inhibition ratio (%), Digitaria sanguinalis (digitaria sanguinalis): 83% | herbicidal activity inhibition ratio (%), Amaranthus retroflexus (amaranthus retroflexus): 90% | herbicidal activity inhibition ratio (%), Eclipta prostrata (eclipta prostrata): 80% | herbicidal activity inhibition ratio (%), Abutilon theophrasti (abutilon theophrasti): 93% | herbicidal activity inhibition ratio (%), Echinochloa crusgalli (echinochloa crusgalli): 50% | herbicidal activity inhibition ratio (%), Setaria viridis (setaria viridis): 40%

CCn1c(=O)n(-c2ccc(Cl)cc2)c(=O)c2cc(C(=O)C3=C(O)CCCC3=O)ccc21 [Compound 43]
herbicidal activity inhibition ratio (%), Digitaria sanguinalis (digitaria sanguinalis): 60% | herbicidal activity inhibition ratio (%), Amaranthus retroflexus (amaranthus retroflexus): 98% | herbicidal activity inhibition ratio (%), Eclipta prostrata (eclipta prostrata): 83% | herbicidal activity inhibition ratio (%), Abutilon theophrasti (abutilon theophrasti): 65% | herbicidal activity inhibition ratio (%), Echinochloa crusgalli (echinochloa crusgalli): 80% | herbicidal activity inhibition ratio (%), Setaria viridis (setaria viridis): 50%

Cc1cc(C)c(-n2c(=O)c3cc(C(=O)C4=C(O)CCCC4=O)ccc3n(C)c2=O)c(C)c1 [Compound 67]
herbicidal activity inhibition ratio (%), Digitaria sanguinalis (digitaria sanguinalis): 80% | herbicidal activity inhibition ratio (%), Amaranthus retroflexus (amaranthus retroflexus): 80% | herbicidal activity inhibition ratio (%), Eclipta prostrata (eclipta prostrata): 0% | herbicidal activity inhibition ratio (%), Abutilon theophrasti (abutilon theophrasti): 95% | herbicidal activity inhibition ratio (%), Echinochloa crusgalli (echinochloa crusgalli): 83% | herbicidal activity inhibition ratio (%), Setaria viridis (setaria viridis): 80%

Cc1ccccc1-n1c(=O)c2cc(C(=O)C3=C(O)CCCC3=O)ccc2n(C)c1=S [Compound 86]
herbicidal activity inhibition ratio (%), Digitaria sanguinalis (digitaria sanguinalis): 30% | herbicidal activity inhibition ratio (%), Amaranthus retroflexus (amaranthus retroflexus): 0% | herbicidal activity inhibition ratio (%), Eclipta prostrata (eclipta prostrata): 30% | herbicidal activity inhibition ratio (%), Abutilon theophrasti (abutilon theophrasti): 20% | herbicidal activity inhibition ratio (%), Echinochloa crusgalli (echinochloa crusgalli): 85% | herbicidal activity inhibition ratio (%), Setaria viridis (setaria viridis): 10%

CCCCn1c(=O)n(-c2ccccc2C)c(=O)c2cc(C(=O)C3=C(O)CC(C)(C)CC3=O)ccc21 [Compound 74]
herbicidal activity inhibition ratio (%), Digitaria sanguinalis (digitaria sanguinalis): 0% | herbicidal activity inhibition ratio (%), Amaranthus retroflexus (amaranthus retroflexus): 0% | herbicidal activity inhibition ratio (%), Eclipta prostrata (eclipta prostrata): 0% | herbicidal activity inhibition ratio (%), Abutilon theophrasti (abutilon theophrasti): 50% | herbicidal activity inhibition ratio (%), Echinochloa crusgalli (echinochloa crusgalli): 0% | herbicidal activity inhibition ratio (%), Setaria viridis (setaria viridis): 10%

Cn1c(=O)n(-c2ccc(OC(F)(F)F)cc2)c(=O)c2cc(C(=O)C3=C(O)CC(C)(C)CC3=O)ccc21 [Compound 49]
herbicidal activity inhibition ratio (%), Digitaria sanguinalis (digitaria sanguinalis): 90% | herbicidal activity inhibition ratio (%), Amaranthus retroflexus (amaranthus retroflexus): 95% | herbicidal activity inhibition ratio (%), Eclipta prostrata (eclipta prostrata): 80% | herbicidal activity inhibition ratio (%), Abutilon theophrasti (abutilon theophrasti): 100% | herbicidal activity inhibition ratio (%), Echinochloa crusgalli (echinochloa crusgalli): 65% | herbicidal activity inhibition ratio (%), Setaria viridis (setaria viridis): 50%

Cn1c(=O)n(-c2cccc(F)c2)c(=O)c2cc(C(=O)C3=C(O)CC(C)(C)CC3=O)ccc21 [Compound 11]
herbicidal activity inhibition ratio (%), Digitaria sanguinalis (digitaria sanguinalis): 95% | herbicidal activity inhibition ratio (%), Amaranthus retroflexus (amaranthus retroflexus): 85% | herbicidal activity inhibition ratio (%), Eclipta prostrata (eclipta prostrata): 85% | herbicidal activity inhibition ratio (%), Abutilon theophrasti (abutilon theophrasti): 85% | herbicidal activity inhibition ratio (%), Echinochloa crusgalli (echinochloa crusgalli): 85% | herbicidal activity inhibition ratio (%), Setaria viridis (setaria viridis): 80%

Cc1ccccc1-n1c(=O)c2cc(C(=O)C3=C(O)CC(C)(C)CC3=O)ccc2n(C)c1=S [Compound 87, 6-[(2-hydroxy-4,4-dimethyl-6-oxo-1-cyclohexenyl)carbonyl]-1-methyl-2-thio-3-(o-tolyl)-2,3-dihydroxyquinazoline-4(1H)-ketone]
herbicidal activity inhibition ratio (%), Digitaria sanguinalis (digitaria sanguinalis): 0% | herbicidal activity inhibition ratio (%), Amaranthus retroflexus (amaranthus retroflexus): 0% | herbicidal activity inhibition ratio (%), Eclipta prostrata (eclipta prostrata): 0% | herbicidal activity inhibition ratio (%), Abutilon theophrasti (abutilon theophrasti): 0% | herbicidal activity inhibition ratio (%), Echinochloa crusgalli (echinochloa crusgalli): 25% | herbicidal activity inhibition ratio (%), Setaria viridis (setaria viridis): 10%

COc1cccc(-n2c(=O)c3cc(C(=O)C4=C(O)CCCC4=O)ccc3n(C)c2=O)c1 [Compound 55]
herbicidal activity inhibition ratio (%), Digitaria sanguinalis (digitaria sanguinalis): 60% | herbicidal activity inhibition ratio (%), Amaranthus retroflexus (amaranthus retroflexus): 95% | herbicidal activity inhibition ratio (%), Eclipta prostrata (eclipta prostrata): 68% | herbicidal activity inhibition ratio (%), Abutilon theophrasti (abutilon theophrasti): 100% | herbicidal activity inhibition ratio (%), Echinochloa crusgalli (echinochloa crusgalli): 93% | herbicidal activity inhibition ratio (%), Setaria viridis (setaria viridis): 25%
